Assays:
3T3-L1 [1] = assay: Effective concentration for enhancement of insulin-induced triglyceride accumulation in 3T3-L1 cells; type: functional; details: Mus musculus
3T3-L1 [2] = assay: Percentage of rosiglitazone response for insulin-sensitizing activity at 1 uM concentration in 3T3-L1 cells; type: functional, Mus musculus

| Compound | EC30 (3T3-L1 [1]) [nM] | Insulin-sensitizing activity (3T3-L1 [2]) [%] |
| --- | --- | --- |
| CN(CCOc1ccc(CC2SC(=O)NC2=O)cc1)c1ccccn1 (stereo not drawn) [ROSIGLITAZONE] | 20.3 | 100 |
| CCc1ccc(CCOc2ccc3c(c2)OC(=O)C(C(=O)OC)C3)nc1 (stereo not drawn) | – | 27 |
| COC(=O)c1cc2ccc(OCCc3nc(-c4ccccc4)oc3C)cc2oc1=O | 8 | 129 |
| COC(=O)C1Cc2ccc(OCCN(C)c3nc4ccccc4o3)cc2OC1=O (stereo not drawn) | 219 | 108 |
| COC(=O)c1cc2ccc(OCCn3ccc4ccccc43)cc2oc1=O | 344 | 108 |
| COC(=O)c1cc2ccc(OCCN(C)C(=O)OC(C)(C)C)cc2oc1=O | – | 115 |
| Cc1oc(-c2ccccc2)nc1CCOc1ccc2c(c1)OC(=O)C(C(=O)O)C2 (stereo not drawn) | 110 | 98 |
| CCc1ccc(CCOc2ccc3cc(C(=O)OC)c(=O)oc3c2)nc1 | – | 46 |
| COC(=O)C1Cc2cc(OCCc3nc(-c4ccccc4)oc3C)ccc2OC1=O (stereo not drawn) | – | 28 |
| Cc1oc(-c2ccccc2)nc1CCOc1ccc2cc(C(=O)O)c(=O)oc2c1 | 300 | 103 |
| CCc1ccc(CCOc2ccc3cc(C(=O)O)c(=O)oc3c2)nc1 | – | 15 |
| COC(=O)C1Cc2ccc(OCCc3nc(-c4ccccc4)oc3C)cc2OC1=O (stereo not drawn) | 15.6 | 132 |
| COC(=O)c1cc2cc(OCCc3nc(-c4ccccc4)oc3C)ccc2oc1=O | – | 33 |
| Cc1oc(-c2ccccc2)nc1CCOc1ccc2cc(C(=O)OC(C)(C)C)c(=O)oc2c1 | 382 | 89 |
| O=C(O)c1cc2ccc(OCCn3ccc4ccccc43)cc2oc1=O | – | 25 |

— ChEMBL document CHEMBL1136279, “Synthesis and insulin-sensitizing activity of a novel kind of benzopyran derivative” (2003)
